Results reported in patent US6497862B2, “Composition for inhibiting body odor and uses thereof” (Kabushiki Kaisha Hayashibara, priority 2000, dated 2002).

How the values were obtained:
[1] = Panel test of body-odor-like smell (KAREI-SHU), 9-hexadecanoic acid heated (Experiment 3); design: key: +++: the same or higher level of odor; ++: slightly lower level of odor; +: clearly lower level of odor than that of the control system; conditions: compared with control system
Text: (§1) Upon the HSG samples, the level of a body-odor-like smell was examined on a panel test consisting of six professional panels; the panels directly smelled the samples from each glass vial and judged the level of the smells for each samples with test saccharides based on the following four ranks, i.e., the same or higher level of odor (+++), slightly lower level of odor (++), clearly lower level of odor (+), and odorless (−) as compared with the control system. Summing up the data from the panels, the samples tested were totally evaluated.
(§2) The content of 2-nonenal in HSG was measured by GC similarly as in Experiment 1 except that 9-hexadecanoic acid or palmitoleic acid was used as a fatty acid and 2-nonenal, a volatile aldehyde, was used as a standard substance. The level of body-odor-like smell, particularly with respect to KAREI-SHU, in each sample was evaluated by panel test in accordance with the method in Experiment 1.

[2] = Panel test of body-odor-like smell (KAREI-SHU), linoleic acid heated (Experiment 2); design: key: +++: the same or higher level of odor; ++: slightly lower level of odor; +: clearly lower level of odor than that of the control system; conditions: compared with control system
Text: as §1
as §2, with “except that linoleic acid was” for “except that 9-hexadecanoic acid or palmitoleic acid was”, “level of a body-odor-like smell,” for “level of body-odor-like smell,”

[3] = Formation of 2-nonenal from 9-hexadecanoic acid by heating, GC of HSG (Experiment 3); conditions: 9-hexadecanoic acid + 100 mg test saccharide, heated at 105° C. for one hour; control 25.7
Description: (§3) One hundred milligrams of oleic acid as a fatty acid, 500 mg of cellulose powder, and 1.25 ml of 0.12 M phosphate buffer (pH 6.0) were placed in a 20-ml glass vial. To the glass vial were added 100 mg of either of crystalline trehalose hydrate, crystalline maltitol anhydride, crystalline sorbitol anhydride, crystalline sucrose anhydride, crystalline maltose anhydride, and crystalline neotrehalose hydride as test saccharides (throughout Experiments 1 to 6, these saccharides are designated as “trehalose”, “maltitol”, sorbitol”, “sucrose”, “maltose”, and “neotrehalose”, respectively), followed by sealing the glass vial with a butyl rubber. As a control system, there provided a glass vial, with no a test saccharide, which differed from the test glass vial on this point. These glass vials were heated at 105° C. for one hour, cooled to ambient temperature, and kept in an aluminum heat-block (abbreviated as “heat block, hereinafter”), which had been preheated to 80° C. After 5-minutes standing, two milliliters of a head space gas (abbreviated as “HSG”, hereinafter) were collected from each glass vial with a syringe.
(§4) The collected HSG was analyzed for content of volatile aldehydes on gas chromatography (abbreviated as “GC” hereinafter) using “GAS CHROMATOGRAPH GC-14A”, as a GC apparatus; “CAPILLARY COLUMN SUPELCO-WAX”, having 0.25 mm in inner diameter, 60 m in length, and 0.25 μm in thickness, commercialized by Supelco Inc., Tokyo, Japan, as a column for analysis; helium gas at a flow rate of one ml/min as a carrier gas, under temperature conditions of 250° C. for injecting a sample and of a column thermostatic bath temperature being kept at 80° C. for five minutes and then increased up to 240° C. at a rate of 5° C./min. As standard specimens, propanal, butanal, and hexanal as volatile aldehydes were used. Based on the peak area obtained from gas chromatography for the standard specimens and HSG samples, the content of respective volatile aldehydes in HSG was calculated.
as §2

[4] = Formation of 2-nonenal from linoleic acid by heating, GC of HSG (Experiment 2); conditions: linoleic acid + 100 mg test saccharide, heated at 105° C. for one hour; control 5.75
Description: as §3, §4
as §2, with “except that linoleic acid was” for “except that 9-hexadecanoic acid or palmitoleic acid was”, “level of a body-odor-like smell,” for “level of body-odor-like smell,”

[5] = Panel test of body-odor-like smell, oleic acid heated (Experiment 1); design: key: +++: the same or higher level of odor; ++: slightly lower level of odor; +: clearly lower level of odor than that of the control system; conditions: oleic acid heated at 105° C. for one hour; six panels, compared with control system
Description: as §3, §1

[6] = Formation of volatile aldehydes from oleic acid by heating, GC analysis of head space gas (Experiment 1); conditions: oleic acid 100 mg + 100 mg test saccharide, heated at 105° C. for one hour; for Content in HSG, Hexanal: control 0.08; for Content in HSG, Butanal: control 1.04; for Content in HSG, Propanal: control 9.41
Description: as §3, §4

Compound	Evaluation of panel test [1]	Evaluation of panel test [2]	Content of 2-nonenal in HSG [3]	Content of 2-nonenal in HSG [4]	Evaluation of panel test [5]	Content in HSG, Hexanal [6]	Content in HSG, Butanal [6]	Content in HSG, Propanal [6]
OC[C@@H](O)[C@@H](O)[C@H](O)[C@@H](O)CO [Sorbitol, sorbitol]	+++	+++	23.6 µg/mL	5.12 µg/mL	+++	0.06 µg/mL	1.06 µg/mL	8.31 µg/mL
OC[C@H]1O[C@H](O[C@H]2[C@H](O)[C@@H](O)C(O)O[C@@H]2CO)[C@H](O)[C@@H](O)[C@@H]1O (mixture of isomers) [Maltose, maltose]	+++	+++	24.2 µg/mL	4.60 µg/mL	+++	0.07 µg/mL	1.38 µg/mL	9.09 µg/mL
OC[C@H]1O[C@@H](O[C@H]2O[C@H](CO)[C@@H](O)[C@H](O)[C@H]2O)[C@H](O)[C@@H](O)[C@@H]1O [Neotrehalose, neotrehalose]	+++	+++	25.7 µg/mL	5.64 µg/mL	+++	0.08 µg/mL	1.25 µg/mL	8.89 µg/mL
